Source: patent US20030186887A1, “Compounds for detection of infection by chlamydophila abortus” (priority 2000, published 2003)
Like-named read-outs stand apart in the source and are kept apart here. Ends that are not written are not given here. * marks the point of attachment. Biotin = O=C1N[C@H]2[C@H](CS[C@H]2CCCCC(=O)*)N1

Key:
[1] = Solubilisation of compounds; assay type: physicochemical; details: water
Protocol: Each peptide is resuspended in the preferred solvent to a concentration of 1 mg per ml. This stock solution is dispensed in 500 μl volume aliquots in 1 ml bottles, labelled and stored at −85° C. or, less preferably, at −20° C.

[2] = tested on: sera from sheep free of infection with C. abortus
Text: In the Applicant's experience at least two different forms of microtitration plates may be used. One form uses tresyl-activated dextran, which is applied to the polystyrene plate and forms a layer between the plate and the peptide (Gregorius et al., 1995). The commercially available plates (‘Aquabind™’) are produced by M&E, Denmark and marketed in the UK through Labsystems by Life Sciences. […] The second form of plate is one modified by coating with streptavidin. Such plates are commercially available e.g. Labsystems, Pierce and Warriner. […] The preferred microtitration plate types used to bind streptavidin are those modified to provide high protein binding e.g. Dynex Immulon 2, Greiner High Bind. To each well is added streptavidin in 150 μl volumes. The plates are incubated, preferably for 2 hours at 35-37° C., then the contents ejected and the plates washed 3 times with PBS buffer, pH 7.4 (Appendix). The plates are thoroughly dried and stored at 4° C. until required. Application of the peptide mixture is performed as follows:
The stock solutions (1 mg per ml) of the selected peptides are diluted in the same volume of carbonate-bicarbonate buffer, pH 9.6, to their optimum concentration. […] The peptide mixture solution is added in volumes of 150 μl per well. In a ‘controlled’ test, the peptide mixture is added to all wells in even numbered columns, while carbonate-bicarbonate buffer is added to all wells in odd-numbered columns in the same volume per well. In ‘screen’ tests, where control wells are not used for each sample, the peptide mixture is added to all 96 wells on the plate. The plates are incubated, preferably at 4° C. for 4 to 12 hours, then washed 4 times with PBS/Tween buffer (Appendix) and thoroughly dried, preferably for 4 hours in a fan-driven cabinet. The coated plates are placed in watertight bags with a desiccant, and the bags sealed and stored at 4° C. until required.
Two dilutions of standard serum are used. One, employed at a dilution of 1 in 1000, is used to indicate successful performance of the test (‘standard positive’). […] In the kits, the positive and cut-off standards are provided pre-diluted to working strength in a proprietary stabilisation buffer (Dako) which contains a preservative (ProClin 300; Supelco; used at 1 in 2000), and are not diluted further before addition to the test plate.
The test serum samples are diluted 1:100 in Serum Conjugate Diluent (Appendix). The test kits provide a Diluter plate, which has very low protein binding properties. By adding 15 μl of serum to 135 μl of Serum Conjugate Diluent on the Diluter plate, an initial 1 in 10 dilution is achieved. Transfer of 15 μl from the Diluter plate to 135 μl of Serum Conjugate Diluent dispensed into each well in the test plate enables a further dilution to 1 in 100 (from the original sample) on the test plate. […] Dilution of sera can also be performed, if preferred, in bijoux or tubes before their addition in 150 μl volumes to the Test plate.
Test and standard sera are incubated on the Test plate for 15 min at room temperature (˜20° C.), then 30 min at 37° C. Plate contents are then ejected and the plate washed 4 times with PBS/Tween (Appendix) and dried.
A probe to detect the presence of immunoglobulin, to which is conjugated an enzyme (the ‘conjugate’), is then added. Preferably, the probe constitutes Protein G (recombinant form, in which the moiety that binds to albumin has been eliminated; available from Sigma and Calbiochem) conjugated with horse radish peroxidase, but many forms of conjugate are available. These include, as probes, Protein A; and monoclonal or polyclonal antibodies against the immunoglobulins of the species providing the test sample.

antibodies to C. abortus = assay: ELISA, serological reactivity of biotinylated peptides against serum dilutions (Tables 1 and 2); assay type: binding, sheep
Protocol: Application of the peptide mixture is performed as follows:
Two dilutions of standard serum are used.
The data illustrate that the length of compound has a major impact on serological reactivity.
Thus, substitutions within the core epitopes described in this invention are possible without too much loss in compound serological reactivity.

[3] = PS (Positive Control Serum) 1/1000
[4] = PS (Positive Control Serum) 1/15000
[5] = serum of Animal No. 13, sheep free of infection with C. abortus
[6] = serum of Animal No. 28, sheep free of infection with C. abortus
[7] = serum of Animal No. 19, sheep free of infection with C. abortus

| Substance | solubility [1] | Net OD [Gross OD - No compound OD] [2, 3] | Net OD [Gross OD - No compound OD] [2, 4] | Net OD [Gross OD - No compound OD] [2, 5] | Net OD [Gross OD - No compound OD] [2, 6] | Net OD [Gross OD - No compound OD] [2, 7] | also measured |
| --- | --- | --- | --- | --- | --- | --- | --- |
| SGTAAANYKTKGTAAANYKT [Compound #1] | soluble in water |  |  |  |  |  |  |
| GKGSSIAADQNKGSSIAADQ [Compound #2] | soluble in water |  |  |  |  |  |  |
| Biotin-KASSAAFNLVGLIVKGSSIAADQ [Compound 2/L] |  | 1.534 | 0.098 | 0.572 | 0.389 |  | Net OD [Gross OD - No compound OD] ([2]; serum of Animal No. 5, sheep free of infection with C. abortus): 0.285; Net OD [Gross OD - No compound OD] ([2]; serum of Animal No. 36, sheep free of infection with C. abortus): 0.128; Net Optical Density (antibodies to C. abortus; serum dilution 1/100): 2.629; Net Optical Density (antibodies to C. abortus; serum dilution 1/200): 1.885; Net Optical Density (antibodies to C. abortus; serum dilution 1/400): 1.107; Net Optical Density (antibodies to C. abortus; serum dilution 1/800): 0.544; Net Optical Density (antibodies to C. abortus; serum dilution 1/1600): 0.263; Net Optical Density (antibodies to C. abortus; serum dilution 1/3200): 0.115; Net Optical Density (antibodies to C. abortus; serum dilution 1/6400): 0.056 |
| Biotin-KTITGKKVPTGTAAANYKTPT [Compound 1-5] |  | 3.744 | 0.452 |  | 0.352 | 0.747 | Net OD [Gross OD - No compound OD] ([2]; serum of Animal No. 14, sheep free of infection with C. abortus): 0.978; Net OD [Gross OD - No compound OD] ([2]; serum of Animal No. 31, sheep free of infection with C. abortus): 0.423; Net OD [Gross OD - No compound OD] ([2]; serum of Animal No. 37, sheep free of infection with C. abortus): 0.580 |
| Biotin-KKKKKKKGVKGSSIAADQLPN [Compound 2-7] |  | 1.038 | 0.059 | 0.198 |  | 0.119 | Net OD [Gross OD - No compound OD] ([2]; serum of Animal No. 11, sheep free of infection with C. abortus): 0.607; Net OD [Gross OD - No compound OD] ([2]; serum of Animal No. 29, sheep free of infection with C. abortus): 0.144 |
